Measured values taken from US9012414B2, “Cosmetic composition” (Guerlain, priority 2010, dated 2015).
“Also recorded” adds a separate entry of the source.

Legend:
[1] = system: HaCaT cells; assay: Measurement of mitochondrial biogenesis on modified human keratinocytes (HaCaT), qPCR of 16S and COX2 DNA versus UCP-2; format: cell-based; details: 48 h
Description: The objective is to verify whether or not the increase in enzymatic activity measured is linked to a basal stimulation of the respiratory chain of the mitochondria initially present or to an increase in the number of intracellular mitochondria, indicative of a stimulation of mitochondrial biogenesis.
The HaCaT cells are cultured in 6-well plates and then treated as described above. After treatment for 48 h, the cells are lysed with a buffer consisting of 10 mM of Tris base, 1 mM EDTA, 0.3M of sodium acetate and 1% SDS (1 ml/well) and according to an incubation time of overnight at 55° C. The mitochondrial DNA is extracted from the cell lysate with a phenol solution (1/1 ratio). Two cycles of centrifugation at 4000 rpm (5 minutes) are carried out. A solution de CHCl3/isoamyl alcohol (24:1, v/v) is then added to the upper aqueous phase, recovered after settling out. The mixture is then centrifuged (5 minutes, 4000 rpm, 4° C.).
Precipitation of the total DNA is induced by adding an absolute ethanol/3M sodium acetate mixture ([…]) to the supernatant. After centrifugation (30 minutes, 12000 rpm, 4° C.), the pellets are washed with EtOH at 70° v/v, and then dried and taken up in deionized water. The DNA is assayed using a spectrometer (Thermo Scientific Nanodrop). The DNA solutions are adjusted to a concentration of 10 ng/μl.
The expression of three different genes is measured by qPCR. This technique makes it possible to measure the amount of DNA polymerized by means of a fluorescent label. […]
The fluorescence is measured after the 45 cycles and the amount of DNA obtained is determined by means of the DNA range.
The results are expressed in amount of 16S and COX2 (QCOX2) DNA, calculated according to the amount of UCP-2 genomic DNA (QUCP-2), and which is defined as (QCOX2)/(QUCP-2)
A calculated (QCOX2)/(QUCP-2) ratio of greater than 1 indicates an increase in the amount of mitochondrial DNA, and reflects an increase in the number of intracellular mitochondria.

[2] = system: cytochrome C oxidase; assay: Stimulation of cytochrome C oxidase on modified human keratinocytes (HaCaT); format: cell-based; details: for Activation of cytochrome C oxidase activity: HaCaT cells, treatment 3 h, positive control resveratrol 11.41 μg/ml (50 μM)
Description: The objective of the study is to evaluate the potential of the compounds which are the subject of the invention for stimulating the performance levels of the mitochondrial respiratory chain. The assays are carried out on genetically modified human keratinocytes (HaCaT).
The HaCaT cells were cultured in 6-well plates in RPMI 1640 medium (Roswell Park Memorial Institute) w/o HEPES (Invitrogen) supplemented with 10% of fetal calf serum (FCS, Invitrogen) and a penicillin/streptomycin mixture, until confluence. They were then treated, in DMEM (Dulbecco's Modified Eagle Medium, Invitrogen) containing 4.5 g/L of glucose, 0.1% BSA (Bovine Serum albumin AM2618 Invitrogen), with serial dilutions of vandaterosides (from 6.25 to 0.78 μg/ml) diluted in DMSO (0.1% v/v final concentration). Resveratrol (Sigma) at 50 μM, i.e. 11.41 μg/ml, was used as positive reference. The untreated cells containing 0.1% v/v of DMSO were considered to be a negative control. After treatment for 3 h, the cells were lysed (20 mM HEPES, 0.1% Triton, 1 mM EDTA) and the total cell proteins were assayed by means of the Bradford technique (B6916 Sigma). The total protein concentration of each sample was then adjusted to 2 mg/ml.
The cell lysate was incubated in the presence of an assay buffer (Sigma) in order to determine the enzymatic kinetics without the addition of substrate, denoted Vo. Cytochrome C (from equine heart C-7752 Sigma) reduced with DTT (dithiothreitol, Sigma) was added to the assay buffer at 50 μM in order to measure the rate of the enzymatic reaction. The disappearance of the reduced cytochrome C was monitored using a spectrophotometer [Beckman DU 640] at 550 nm for 90 seconds according to the manufacturer's (Sigma) instructions. The results were calculated from the enzymatic kinetics curves and are expressed as cytochrome C oxidase activity (U/μg of proteins).
The equations allowing the calculation of the enzymatic activities are the following: Enzymatic activity of cytochrome C in U/ml=ACOX=(DA/min)/21.84 with: • DA/min=A/min(v)−A/min (v0) • 21.84 (mM)=ε(molar extinction coefficient) of ferrocytochrome C at 550 nm • A=Absorbance at 550 nm • A/min(v)=Absorbance at 550 nm at time “v” in minutes, corresponding to the time of the measurement after the addition of the substrate; • A/min (v0)=Absorbance at 550 nm at time “v0” (at the start, i.e. before the addition of substrate) in minutes.
The results are expressed by comparison of the enzymatic activity measured in the presence of the vandaterosides (ACOX samples) relative to the control enzymatic activity (ACOX control): i.e. (ACOX samples)/(ACOX control).
A calculated (ACOX samples)/(ACOX control) ratio of greater than 1 indicates stimulation of the activity of cytochrome C oxidase in the presence of the samples.

[3] = Solubility of the isolated vandaterosides; format: physicochemical
[4] = concentrations tested other than VT1 at 6.25 μg/ml

SMILES	Activation of mitochondrial biogenesis (increase in number of intracellular mitochondria) ([1]; 6.25 μg/ml, the exception means activation was seen)	Activation of mitochondrial biogenesis (increase in number of intracellular mitochondria) [1, 4]	Activation of cytochrome C oxidase activity ([2]; 6.25 to 0.78 μg/ml)	Dose effect on cytochrome C oxidase activity ([2]; HaCaT, 6.25 to 0.78 μg/ml, 3 h)	Solubility in MeOH and DMSO [3]	Solubility in water ([3]; water)	Cytochrome C oxidase activity level compared with resveratrol ([2]; HaCaT, 1.56 μg/ml (2 μM), 3 h, versus resveratrol 11.41 μg/ml (50 μM))	Concentration at which a gel forms in water ([3]; water)
O=C(CC(O)(Cc1ccc(O)cc1)C(=O)O)OCc1ccc(O[C@@H]2O[C@H](CO)C(O)[C@H](O)[C@H]2O)cc1 (stereo partly drawn) [VT1, 4-(4-β-D-glucopyranosyloxybenzyl)-(2R)-2-(p-hydroxybenzyl) malate]	with the exception of VT1 at 6.25 μg/ml	neither of the two compounds induces an activation of mitochondrial biogenesis	stimulatory effect	A dose effect is observed	soluble	low solubility	–	–
O=C(CC(O)(Cc1ccc(O)cc1)C(=O)OCc1ccc(O[C@@H]2O[C@H](CO)[C@@H](O)[C@H](O)[C@H]2O)cc1)OCc1ccc(O[C@@H]2O[C@H](CO)[C@@H](O)[C@H](O)[C@H]2O)cc1 (stereo partly drawn) [VT2, 1,4-bis(4-β-D-glucopyranosyloxybenzyl)-(2R)-2-(p-hydroxybenzyl) malate]	–	neither of the two compounds induces an activation of mitochondrial biogenesis	stimulatory effect; also recorded: best cytochrome C oxidase activator	–	soluble	low solubility	comparable to resveratrol	approximately 10 mM
